Measurements taken from the NIST ThermoML archive (doi:10.1016/j.tca.2008.03.009).
Numbers after ± are expanded uncertainties.

Assay: molar heat capacity at constant pressure
Conditions: 328.1 K; 101.33 kPa; Crystal; Small sample (50 mg) DSC

With `[BH4-].[Na+]` [sodium tetrahydroborate] the “molar heat capacity at constant pressure” value was 111.61 ± 2.3 J/K/mol.
